{"source": "patent US7947308B2", "about": "“Effervescent powders for inhalation” (priority 2005, dated 2011)", "assay": "In vitro aerosol deposition, Mark II Andersen Cascade Impactor (MMAD, FPF, GSD)", "type": "physicochemical", "conditions": "spray-dried carrier particles containing ciprofloxacin; UV assay of impactor plates", "description": "The pulmonary deposition of the empty effervescent carrier particles and the carrier particles containing nanoparticles were investigated in vitro by measuring the Mass Median Aerodynamic Diameter (MMAD) using a Mark II Andersen Cascade Impactor (Thermo Andersen, Smyrna, Ga.) in combination with a new high efficiency inhaler (described in U.S. Patent Application Publication No. 2004/0107963 to Finlay, W. H. & Wang, Z., filed Dec. 2, 2003, entitled “Device and Method for Deagglomeration of Powder for Inhalation”, the contents of which are herein incorporated by reference); Wang, Z., Grgic, B., and Finlay, W. H. (2006) A Dry Powder Inhaler with Reduced Mouth-throat Deposition. […]\nThe MMAD was calculated by linear interpolation of the cumulative mass distribution to obtain the particle size for which the cumulative mass under this size was 50% (Sham, J.-H., Zhang, Y., Finlay, W. H., Roa, W. H. & Lobenberg, R. (2004) Formulation and characterization of spray-dried powders containing nanoparticles for aerosol delivery to the lung. International Journal of Pharmaceutics. 269: 457-467). […]\nParticle size and FPF were determined as noted above in Example 1. The dispersibility and content of ciprofloxacin of the spray-dried powders was determined using a Mark II Andersen impactor. […] The MMAD was calculated by a nonlinear regression fit of a log-normal function to the data. […]"}
{"smiles": "O=C(O)c1cn(C2CC2)c2cc(N3CCNCC3)c(F)cc2c1=O", "note": "[ciprofloxacin]", "values": [{"measurement": "range size of most of the particles (cascade impactor)", "value": "4.9+/−1 μm"}]}
